Results reported in publication PMC12718261, “New Fluorescent Synthetic Retinoids as Potential RAR Agonists with Anticancer, Molecular Docking and ADME Assessments” (Journal of Fluorescence, 2025).
“And” between values parts separate entries of the source, which are not always exact repeats. Identical values can stand only once.

Columns and labels:
Type in all cases: cell-based
[1] = tested on: WI-38 normal human fibroblast cells; experiment: MTT cytotoxicity assay on normal fibroblasts; details: WI-38 normal fibroblast cells, 24 h, mean ± SEM
Method: (§1) The antiproliferation and cytotoxicity were assessed using 3-(4,5-dimethylthiazol-2-yl)−2,5-diphenyltetrazolium bromide (MTT, Serva) colorimetric assay. All tested cancer cell lines were seeded at a density of 20,000 cells per well in 96-well plates and allowed to adhere overnight. The attached cells were treated with five serial dilutions (100, 50, 5, 0.5, and 0.1 μM) in triplicate. These concentrations were prepared by diluting the stock solutions with serum-free culture media. The negative control cells were those treated with 0.1% DMSO solvent alone. The treated cells were handled in reduced light and maintained under standard culture growth conditions for 24 h. After the incubation period, MTT powder was prepared as a stock solution (5 mg/mL), and 20 μL of the MTT working reagent (final concentration 0.5 mg/mL) was added to each well. This was followed by incubation with MTT reagent for 4 h in a humidified atmosphere (37 °C, 5% CO2) with subsequent addition of 150 μL of DMSO solubilizing solvent and incubation for 20 min. The absorbance of solubilized violet formazan crystals was measured at 570 nm with a Biotek 800 TS microplate reader. IC50 was calculated as the concentration of retinoid that produced 50% cell growth inhibition. For cytotoxicity assessment, WI-38 normal human fibroblast cells were used for the calculation of SI, which is the ratio of IC50 retinoid (WI-38)/IC50 retinoid (cancer cell line).

Caco-2 = experiment: MTT anti-proliferative assay; details: Homo sapiens; Caco-2, MTT, 24 h, mean ± SEM
Method: as §1

HCT-116 = experiment: MTT anti-proliferative assay; details: Homo sapiens; HCT-116, MTT, 24 h, mean ± SEM
Method: as §1

HepG-2 = experiment: MTT anti-proliferative assay; details: Homo sapiens, HepG2; HepG-2, MTT, 24 h, mean ± SEM
Method: as §1

MCF-7 = experiment: MTT anti-proliferative assay; details: Homo sapiens, MCF7; MCF-7, MTT, 24 h, mean ± SEM
Method: as §1

MDA-MB231 = experiment: MTT anti-proliferative assay; details: Homo sapiens, MDA-MB-231, 24 h, mean ± SEM
Method: as §1

PC-3 = experiment: MTT anti-proliferative assay; details: Homo sapiens; PC-3, MTT, 24 h, mean ± SEM
Method: as §1

Caco-2 cancer cells [2] = experiment: Apoptosis assay Annexin V/PI flow cytometry; details: Caco-2, IC50 dose, 24 h, AV/PI
Method: The standard protocol used in HSBR was performed. […] Cells were rinsed with 1 mL of binding buffer; the cells were again suspended in phosphate-buffered saline (PBS) (Lonza). 100 µL of cell suspension was incubated with 1 µL of FITC-labeled Annexin-V and 5 µL of PI for 15 min at 4 °C in the dark. The suspension was then mixed with 400 µL of ice-cold binding buffer, and each sample's apoptotic cells were analyzed using a Cytoflex flow cytometer (Beckman Coulter, USA), and CytExpert software (version 2.4.0.28) was employed for data analysis.

Caco-2 cancer cells [3] = experiment: Cell cycle assay PI staining flow cytometry; details: Caco-2, IC50 dose, 24 h
Method: The standard protocol used in HSBR was performed. […] Cells were concentrated at 1500 xg and suspended in 50 μg/ml propidium iodide (PI) staining solution and 20 µg/ml RNaseA to identify cells with a sub-G1 DNA content. Cytoflex flow cytometer (Beckman Coulter, USA) was used, and CytExpert software (version 2.4.0.28) was employed for data analysis. The gating strategy used to eliminate doublets depends on plotting the population against a 2D contour plot in four quadrants, referred to as Q1(LL), Q2 (LR), Q3 (UL), and Q4 (UR), that illustrates the spread of the Annexin-FITC-H core cell population against PI PE-H.

[4] = tested on: CRABPI gene in Caco-2 cells; experiment: Gene expression RT-qPCR; details: Caco-2, IC50 dose, 24 h, relative to 0.1% DMSO, normalized to GAPDH
Method: (§2) The gene expression analysis was performed using real-time quantitative PCR (RT-qPCR), as previously documented. After incubation, cells were harvested, and total RNA was extracted using the Favor-PrepTM Blood/Cultured Cell Total RNA Purification Mini kit (Favorgen Biotech Corp., Ping-Tung, Taiwan). The purified RNA was then reverse transcribed into the first-strand cDNA using the Revert Aid First-Strand cDNA Synthesis Kit (Thermo Scientific, Waltham, MA, USA). All qPCR reactions were carried out using the […] SYBR® Green qPCR Kit (Willowfort, Nottingham, UK). Differential gene expression was performed using the 2ˆ^−ΔΔCT method utilizing GAPDH as a reference gene.

[5] = tested on: CRABPII gene in Caco-2 cells; experiment: Gene expression RT-qPCR; details: Caco-2, IC50 dose, 24 h, relative to 0.1% DMSO, normalized to GAPDH
Method: as §2

[6] = tested on: Caspase-3 gene in Caco-2 cells; experiment: Gene expression RT-qPCR; details: Caco-2, IC50 dose, 24 h, relative to 0.1% DMSO, normalized to GAPDH
Method: as §2

[7] = tested on: Cyt-C gene in Caco-2 cells; experiment: Gene expression RT-qPCR; details: Caco-2, IC50 dose, 24 h, relative to 0.1% DMSO, normalized to GAPDH
Method: as §2

[8] = tested on: RAR-α gene in Caco-2 cells; experiment: Gene expression RT-qPCR; details: Caco-2, IC50 dose, 24 h, relative to 0.1% DMSO, normalized to GAPDH
Method: as §2

[9] = tested on: RAR-γ gene in Caco-2 cells; experiment: Gene expression RT-qPCR; details: Caco-2, IC50 dose, 24 h, relative to 0.1% DMSO, normalized to GAPDH
Method: as §2

[10] = tested on: RAR-α, RAR-β, RAR-γ proteins in Caco-2 cells; experiment: Western blotting of RAR proteins; details: Caco-2, IC50 dose, 24 h, normalized to β-actin
Method: Using the previously outlined protocol, the western blot technique was used to determine the expression of RAR-α (Cat. No. E6Z6 K, cell signaling, USA), RAR-β (Cat. No. PP-H4338-00, R&D systems, USA) and RAR- γ (Cat. No. D3 A4, cell signaling, USA) in Caco-2 cells. […] Following incubation, floating adhered cells were separated and lysed. The Caco-2 cell lysate was immediately collected, subjected to sonication, and centrifuged for 15 min at 12,000 × g. The total soluble protein content was measured colorimetrically using the PierceTM 660 nm Assay (Thermo Scientific, Waltham, MA, USA) after the resultant supernatant was separated. The Gel documentation system (Geldoc-it, UVP, England) was applied for data analysis using Totallab analysis software (Ver.1.0.1) (ww.totallab.com).

[11] = tested on: total ATPase in Caco-2 cells; experiment: Total ATPase activity, malachite green colorimetric; details: Caco-2, IC50 dose, 24 h; 0.1% DMSO control normalized to 100%
Method: (§3) The total activity of ATPase and calcium-independent ATPase activity was quantified colorimetrically as described by our previous protocol. […] The inorganic phosphate (Pi) liberated after the hydrolysis of ATP by ATPase enzymes was complexed into a colored product in one step after the addition of a mixed reagent containing malachite green, ammonium molybdate, and polyvinyl alcohol (2:1:1). The intensity of absorbance at 630 nm was measured using the BioTek 800 TS absorbance plate reader (USA) and was directly proportional to the quantity of liberated Pi. In order to eliminate any color due to the non-enzymatic hydrolysis of ATP, control reactions were made using only ATP in the reaction buffer, and the absorbance intensity was then subtracted from the readings of the samples and standards.

[12] = tested on: calcium-independent ATPases in Caco-2 cells; experiment: Calcium-independent ATPase activity, malachite green colorimetric; details: Caco-2, IC50 dose, 24 h; 0.1% DMSO control normalized to 100%
Method: as §3

SMILES: O=C(O)c1ccc2cc(-c3ccc4c(c3)CCCO4)ccc2c1 [Compound 4b, 6-(chroman-6-yl)−2-naphthoic acid]
- IC50 [1]: 33.5 ± 3.4 µM
- IC50 (Caco-2): 15 ± 0.4 µM
- IC50 (HCT-116): 36.9 ± 2.4 µM
- IC50 (HepG-2): 59.5 ± 3.5 µM
- IC50 (MCF-7): 53.1 ± 5.4 µM
- IC50 (MDA-MB231): 2.28 ± 0.2 µM
- IC50 (PC-3): 2.71 ± 0.2 µM
- % Early apoptotic cells (LR) (Caco-2 cancer cells [2]): 61.41% and 61.41 ± 5.3 %
- % Late apoptotic cells (UL) (Caco-2 cancer cells [2]): 0.09%
- % Necrotic cells (UR) (Caco-2 cancer cells [2]): 38.12 ± 2.8 %
- % Viable cells (LL) (Caco-2 cancer cells [2]): 0.37%
- % G0-G1 (Caco-2 cancer cells [3]): 17.69 ± 3.2%
- % G2M (Caco-2 cancer cells [3]): 1.76 ± 0.1%
- % S (Caco-2 cancer cells [3]): 4.16 ± 1.5%
- % SubG0-G1 (Caco-2 cancer cells [3]): 76.81% and 76.81 ± 6.7 %
- CRABPI gene expression fold change [4]: 53.5 ± 2.4 fold
- CRABPII gene expression fold change [5]: 2.0 ± 0.1 fold
- caspase-3 gene expression fold change [6]: 2.3 ± 0.1 fold
- Cyt-C gene expression fold change [7]: 1.7 ± 0.1 fold
- RAR-α gene expression fold change [8]: 2.9 ± 0.1 fold
- RAR-γ gene expression fold change [9]: 4.3 ± 0.2 fold
- RAR protein expression (western blot) [10]: overexpression of all RAR subtypes
- total ATPase activity [11]: 34.6%
- ca+2-independent ATPase activity [12]: 36.1%
